Data taken from patent US10596118B2, “Solid dispersions” (Shionogi Inc., priority 2015, dated 2020).
Converted amounts (≈) assume the structure as drawn.

Assays:
[1] = Solubility by shake flask method with HPLC analysis; conditions: thermodynamic from solid
Procedure: Solubility measurements of the solid dispersions and physical mixtures were performed using a shake flask method. Individual test samples comprising about 5 mg ospemifene, 30 mg of each physical mixture, or 30 mg of each solid dispersion, were mixed with 20 mL of an aqueous media (either water alone, 0.1N HCl, or a buffered aqueous solution comprising 50 mM phosphate, pH 6.8). The sample was agitated manually for 3 hours. Following mixing, a 1.5 mL sample was withdrawn to a micro-centrifuge tube and centrifuged at 12,000 rpm for 10 min. About 1 mL of supernatant was then transferred to a HPLC vial for HPLC analysis.
The solubilities of ospemifene solid dispersions, the control physical mixtures, and ospemifene alone were determined by HPLC in water, 0.1 N HCl, or 50 mM pH 6.8 buffer using a shake flask method, as described above.

[2] = oral administration of a 60 mg dose; cited from earlier work
[3] = physchem; conditions: organic solvent or mixture, thermodynamic from solid
From the text: In developing methods of evaluating the solubility of the various compositions produced in these studies, a common solvent was selected that was capable of dissolving both ospemifene and each of the hydrophilic carriers being evaluated. […] Thus, an incremental solvent addition method was used to estimate the solubility in methanol and ethanol co-solvent mixture.

[4] = physchem; conditions: water or buffered solutions, aqueous buffer
[5] = Micro dissolution in simulated GI fluids (FaSSIF, FeSSIF) and pH 6.8 phosphate buffer; conditions: for solubility in FeSSIF relative to FaSSIF: FeSSIF versus FaSSIF
From the text: To investigate the in-vivo absorption process of ospemifene in the GI tract, a dissolution method using simulated GI fluids (FaSSIF and FeSSIF) was developed to simulate drug dissolution in-vivo. The abbreviation “FaSSIF” stands for fasted state simulated intestinal fluid, while the abbreviation “FeSSIF” stands for fed state simulated intestinal fluid. […] FaSSIF and FeSSIF media are commercially available from Biorelevant and were used according to the manufacturer's instructions.
Micro dissolution was conducted in a centrifuge vial containing 1.5 mL of dissolution medium (either FaSSIF or FeSSIF) at room temperature. […] The vials were centrifuged at 30 min, 1, 2 and 3 hour(s) at 14,000 rpm for one minute and 50 μL of supernatant was transferred to an HPLC vial and diluted with 50 μL acetonitrile and assayed by HPLC.
The detector was set at 235 nm. Two mobile phases were used, mobile phase A and mobile phase B. Mobile phase A was 800/200/40 (v/v/v) deionized water/acetonitrile/tetrahydrofuran and mobile phase B was 100% acetonitrile.
For drug content analysis, the same HPLC column and mobile phases were used but the flow rate of the mobile phases was 1 ml/min, the injection volume was 7 μL and the gradient program was as follows: […]

[6] = poor water solubility and high permeability
[7] = Sun et al., 2012; cited from earlier work

Row | SMILES | solubility at 3 h ([1]; pH 6.8, aqueous buffer) | solubility at 3 h ([1]; simulated gastric fluid) | solubility at 3 h ([1]; water) | share of total dose eliminated via the fecal route [2] | solubility ([3]; solubility in ethanol, ethanol) | solubility ([3]; solubility in methanol, methanol) | solubility [4] | time the amount of drug in solution remains relatively stable ([5]; FeSSIF and FaSSIF) | solubility in FeSSIF relative to FaSSIF ([5]; listed as micronized ospemifene) | solubility in FeSSIF relative to FaSSIF ([5]; listed as ospemifene alone) | solubility at 2 h ([5]; fassif, thermodynamic from solid) | solubility ([5]; fessif, thermodynamic from solid) | solubility ([5]; pH 6.8, aqueous buffer) | BCS class [6] | maximum solubility enhancement observed with HPMCAS or PVP [7]
1 | OCCOc1ccc(/C(=C(/CCCl)c2ccccc2)c2ccccc2)cc1 [Ospemifene (OSP), ospemifene] | < 0.03 µg/mL | < 0.03 µg/mL | 0.04 µg/mL (≈ 0.106 µM) | 75% | ~57000 µg/mL (≈ 150000 µM) | ~67000 µg/mL (≈ 177000 µM) | < 0.3 µg/mL | 2 to 3 h | about 4 fold | 2-3 fold | 10 µg/mL (≈ 26.4 µM) | 45 µg/mL (≈ 119 µM) | < 10 µg/mL | BCS class II | –
2 | COc1ccc2c(c1)c(CC(=O)O)c(C)n2C(=O)c1ccc(Cl)cc1 [indomethacin] | – | – | – | – | – | – | – | – | – | – | – | – | – | – | 9 fold
